Data published in US11051515B2, “3-acyl-benzamides and their use as herbicides” (Bayer Aktiengesellschaft, priority 2017, dated 2021).

Experiments:
ALOMY [1] = assay: Pre-emergence action against ALOMY; format: in vivo, Alopecurus myosuroides; details: dosage 320 g/ha; pre-emergence; scored visually after 3 weeks vs untreated controls; 100% = plants have died, 0% = like control plants
In short: (§1)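 Seeds sown in sandy loam in wood-fiber pots and covered with soil. Greenhouse growth; visual damage scored after 3 weeks versus untreated controls (100% = dead, 0% = like control).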

AVEFA [2] = assay: Pre-emergence action against AVEFA; format: in vivo, Avena fatua; details: dosage 320 g/ha, scored visually after 3 weeks vs untreated controls
In short: as §1

ECHCG [3] = assay: Pre-emergence action against ECHCG; format: in vivo, Echinochloa crus-galli; details: pre-emergence, dosage 320 g/ha, scored visually after 3 weeks vs untreated controls
In short: as §1

LOLRI [4] = assay: Pre-emergence action against LOLRI; format: in vivo, Lolium rigidum; details: dosage 320 g/ha, scored visually after 3 weeks vs untreated controls
In short: as §1

SETVI [5] = assay: Pre-emergence action against SETVI; format: in vivo, Setaria viridis; details: pre-emergence, dosage 320 g/ha, scored visually after 3 weeks vs untreated controls
In short: as §1

ABUTH [6] = assay: Pre-emergence action against ABUTH; format: in vivo, Abutilon theophrasti; details: pre-emergence, dosage 320 g/ha, scored visually after 3 weeks vs untreated controls
In short: as §1

AMARE [7] = assay: Pre-emergence action against AMARE; format: in vivo, Amaranthus retroflexus; details: pre-emergence, dosage 320 g/ha, scored visually after 3 weeks vs untreated controls
In short: as §1

MATIN [8] = assay: Pre-emergence action against MATIN; format: in vivo, Matricaria inodora; details: Dosage 320 g/ha, pre-emergence
In short: as §1

PHBPU [9] = assay: Pre-emergence action against PHBPU; format: in vivo, Pharbitis purpurea; details: Dosage 320 g/ha, pre-emergence
In short: as §1

POLCO [10] = assay: Pre-emergence action against POLCO; format: in vivo, Polygonum convolvulus; details: Dosage 320 g/ha, pre-emergence
In short: as §1

STEME [11] = assay: Pre-emergence action against STEME; format: in vivo, Stellaria media; details: Dosage 320 g/ha, pre-emergence
In short: as §1

VIOTR [12] = assay: Pre-emergence action against VIOTR; format: in vivo, Viola tricolor; details: Dosage 320 g/ha, pre-emergence
In short: as §1

VERPE [13] = assay: Pre-emergence action against VERPE; format: in vivo, Veronica persica; details: Dosage 320 g/ha, pre-emergence
In short: as §1

HORMU [14] = assay: Pre-emergence action against HORMU; format: in vivo, Hordeum murinum; details: Dosage 320 g/ha
In short: as §1

ALOMY [15] = assay: Post-emergence action against ALOMY; format: in vivo, Alopecurus myosuroides; details: Dosage 80 g/ha, post-emergence
In short: (§2)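 Post-emergence foliar spray on greenhouse plants at the one-leaf stage, using wettable-powder or emulsion-concentrate formulations in water (600 to […], plus 0.2% wetting agent). Damage scored by eye roughly 3 weeks later against untreated plants: 0% = like control, 100% = dead.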

AVEFA [16] = assay: Post-emergence action against AVEFA; format: in vivo, Avena fatua; details: post-emergence, dosage 80 g/ha, visual assessment about 3 weeks after treatment vs untreated controls
In short: as §2

CYPES [17] = assay: Post-emergence action against CYPES; format: in vivo, Cyperus esculentus; details: post-emergence, dosage 80 g/ha, visual assessment about 3 weeks after treatment vs untreated controls
In short: as §2

ECHCG [18] = assay: Post-emergence action against ECHCG; format: in vivo, Echinochloa crus-galli; details: post-emergence, dosage 80 g/ha, visual assessment about 3 weeks after treatment vs untreated controls
In short: as §2

LOLRI [19] = assay: Post-emergence action against LOLRI; format: in vivo, Lolium rigidum; details: dosage 80 g/ha, visual assessment about 3 weeks after treatment vs untreated controls
Experimental: (§3) Seeds of monocotyledonous and dicotyledonous weed and crop plants are laid out in sandy loam soil in wood-fiber pots, covered with soil and cultivated in a greenhouse under good growth conditions. 2 to 3 weeks after sowing, the test plants are treated at the one-leaf stage. The compounds of the invention, formulated in the form of wettable powders (WP) or as emulsion concentrates (EC), are then sprayed onto the green parts of the plants in the form of an aqueous suspension or emulsion at a water application rate equating to […], with addition of 0.2% wetting agent. After the test plants have been left to stand in the greenhouse under optimal growth conditions for about 3 weeks, the action of the preparations is assessed visually in comparison to untreated controls (herbicidal action in percent (%): 100% activity=the plants have died, 0% activity=like control plants). […] At the same time, inventive compounds leave Gramineae crops such as barley, wheat, rye, millet/Sorghum, corn or rice virtually undamaged when applied post-emergence, even at high active ingredient dosages. In addition, some substances are also harmless to dicotyledonous crops such as soya, cotton, oilseed rape, sugar beet or potatoes. Some of the compounds according to the invention have high selectivity and are therefore suitable for controlling unwanted vegetation in agricultural crops by the post-emergence method. The data of Tables B18 to B34 below illustrate, in an exemplary manner, the […] herbicidal action of the compounds according to the invention, the herbicidal activity being stated in percent.

SETVI [20] = assay: Post-emergence action against SETVI; format: in vivo, Setaria viridis; details: post-emergence, dosage 80 g/ha, visual assessment about 3 weeks after treatment vs untreated controls
In short: as §2

ABUTH [21] = assay: Post-emergence action against ABUTH; format: in vivo, Abutilon theophrasti; details: post-emergence, dosage 80 g/ha, visual assessment about 3 weeks after treatment vs untreated controls
In short: as §2

AMARE [22] = assay: Post-emergence action against AMARE; format: in vivo, Amaranthus retroflexus; details: post-emergence, dosage 80 g/ha, visual assessment about 3 weeks after treatment vs untreated controls
In short: as §2

MATIN [23] = assay: Post-emergence action against MATIN; format: in vivo, Matricaria inodora; details: post-emergence, dosage 80 g/ha, visual assessment about 3 weeks after treatment vs untreated controls
In short: as §2

PHBPU [24] = assay: Post-emergence action against PHBPU; format: in vivo, Pharbitis purpurea; details: post-emergence, dosage 80 g/ha
In short: as §2

POLCO [25] = assay: Post-emergence action against POLCO; format: in vivo, Polygonum convolvulus; details: post-emergence, dosage 80 g/ha
In short: as §2

STEME [26] = assay: Post-emergence action against STEME; format: in vivo, Stellaria media; details: post-emergence, dosage 80 g/ha
In short: as §2

VIOTR [27] = assay: Post-emergence action against VIOTR; format: in vivo, Viola tricolor; details: post-emergence, dosage 80 g/ha
In short: as §2

VERPE [28] = assay: Post-emergence action against VERPE; format: in vivo, Veronica persica; details: dosage 80 g/ha
In short: as §2

HORMU [29] = assay: Post-emergence action against HORMU; format: in vivo, Hordeum murinum; details: dosage 80 g/ha
Experimental: as §3

CYPES [30] = assay: Pre-emergence action against CYPES; format: in vivo, Cyperus esculentus; details: pre-emergence, dosage 320 g/ha, scored visually after 3 weeks vs untreated controls
In short: as §1

DIGSA [31] = assay: Pre-emergence action against DIGSA; format: in vivo, Digitaria sanguinalis; details: dosage 320 g/ha, scored visually after 3 weeks vs untreated controls
In short: as §1

DIGSA [32] = assay: Post-emergence action against DIGSA; format: in vivo, Digitaria sanguinalis; details: dosage 80 g/ha, visual assessment about 3 weeks after treatment vs untreated controls
In short: as §2

SMILES	Pre-emergence action against ALOMY (herbicidal activity in percent) (ALOMY [1]) [%]	Pre-emergence action against AVEFA (herbicidal activity) (AVEFA [2]) [%]	Pre-emergence action against ECHCG (herbicidal activity) (ECHCG [3]) [%]	Pre-emergence action against LOLRI (herbicidal activity) (LOLRI [4]) [%]	SETVI (Table B8, pre-emergence herbicidal activity) (SETVI [5]) [%]	Pre-emergence action against ABUTH (herbicidal activity) (ABUTH [6]) [%]	Pre-emergence action against AMARE (herbicidal activity) (AMARE [7]) [%]	Pre-emergence action against MATIN (MATIN [8]) [%]	Pre-emergence action against PHBPU (PHBPU [9]) [%]	Pre-emergence action against POLCO (POLCO [10]) [%]	Pre-emergence action against STEME (STEME [11]) [%]	Pre-emergence action against VIOTR (VIOTR [12]) [%]	Pre-emergence action against VERPE (VERPE [13]) [%]	Pre-emergence action against HORMU (HORMU [14]) [%]	Post-emergence action against ECHCG (herbicidal action in percent) (ECHCG [18]) [%]	Post-emergence action against SETVI (herbicidal action in percent) (SETVI [20]) [%]	Post-emergence action against ABUTH (herbicidal action in percent) (ABUTH [21]) [%]	Post-emergence action against AMARE (herbicidal action in percent) (AMARE [22]) [%]	Post-emergence action against MATIN (herbicidal action in percent) (MATIN [23]) [%]	Post-emergence action against PHBPU (PHBPU [24])	other results
CCn1nnnc1NC(=O)c1ccc(C(F)F)c(C(=O)C2CC2)c1SC [2-67]	100	100	100	100	100	100	100	100	90	90	100	100	100	100	100	100	100	100	100	100	Post-emergence action against ALOMY (ALOMY [15]): 100%; Post-emergence action against AVEFA (herbicidal action in percent) (AVEFA [16]): 100%; Post-emergence action against CYPES (herbicidal action in percent) (CYPES [17]): 80%; Post-emergence action against LOLRI (herbicidal action in percent) (LOLRI [19]): 80%; Post-emergence action against POLCO (POLCO [25]): 100; Post-emergence action against STEME (STEME [26]): 100; Post-emergence action against VIOTR (VIOTR [27]): 100; Post-emergence action against VERPE (VERPE [28]): 90; Post-emergence action against HORMU (HORMU [29]): 80
CCn1nnnc1NC(=O)c1ccc(C(F)(F)F)c(C(=O)C2CC2)c1SC [2-60]	100	100	100	100	100	100	100	100	100	100	100	100	100	100	100	100	100	100	90	100	Pre-emergence action against CYPES (herbicidal activity) (CYPES [30]): 100%; Post-emergence action against ALOMY (ALOMY [15]): 100%; Post-emergence action against AVEFA (herbicidal action in percent) (AVEFA [16]): 80%; Post-emergence action against CYPES (herbicidal action in percent) (CYPES [17]): 90%; Post-emergence action against LOLRI (herbicidal action in percent) (LOLRI [19]): 90%; Post-emergence action against POLCO (POLCO [25]): 90; Post-emergence action against STEME (STEME [26]): 100; Post-emergence action against VIOTR (VIOTR [27]): 100; Post-emergence action against VERPE (VERPE [28]): 100; Post-emergence action against HORMU (HORMU [29]): 100
CCCn1nnnc1NC(=O)c1ccc(C(F)F)c(C(=O)C2CC2)c1SC [3-67]	100	100	100	100	100	100	100	100	100	90	90	100	100	100	100	100	100	100	100	100	Pre-emergence action against CYPES (herbicidal activity) (CYPES [30]): 100%; Post-emergence action against CYPES (herbicidal action in percent) (CYPES [17]): 80%; Post-emergence action against LOLRI (herbicidal action in percent) (LOLRI [19]): 80%; Post-emergence action against POLCO (POLCO [25]): 80; Post-emergence action against STEME (STEME [26]): 100; Post-emergence action against VIOTR (VIOTR [27]): 100; Post-emergence action against VERPE (VERPE [28]): 80; Post-emergence action against HORMU (HORMU [29]): 80
CCn1nnnc1NC(=O)c1ccc(C(F)(F)F)c(C(=O)C2CC2)c1C1CC1 [2-233]	100	100	100	90	100	100	100	100	100	90	100	100	100	90	90	90	100	100	90	90	Pre-emergence action against DIGSA (herbicidal activity) (DIGSA [31]): 100%; Post-emergence action against ALOMY (ALOMY [15]): 90%; Post-emergence action against AVEFA (herbicidal action in percent) (AVEFA [16]): 90%; Post-emergence action against DIGSA (herbicidal action in percent) (DIGSA [32]): 90%; Post-emergence action against POLCO (POLCO [25]): 80; Post-emergence action against STEME (STEME [26]): 90; Post-emergence action against VIOTR (VIOTR [27]): 90; Post-emergence action against VERPE (VERPE [28]): 100; Post-emergence action against HORMU (HORMU [29]): 90
